{"source": "paper PMC6934184", "about": "“Selective DNA-PKcs inhibition extends the therapeutic index of localized radiotherapy and chemotherapy” (The Journal of Clinical Investigation, 2019)", "target": "T1, HIPK1 (Myak) (Homo sapiens, UniProt Q86Z02)", "T1 construct": "purchased Thermo Fisher Scientific (Life Technologies) SelectScreen", "T1 sequence (Q86Z02 whole entry)": "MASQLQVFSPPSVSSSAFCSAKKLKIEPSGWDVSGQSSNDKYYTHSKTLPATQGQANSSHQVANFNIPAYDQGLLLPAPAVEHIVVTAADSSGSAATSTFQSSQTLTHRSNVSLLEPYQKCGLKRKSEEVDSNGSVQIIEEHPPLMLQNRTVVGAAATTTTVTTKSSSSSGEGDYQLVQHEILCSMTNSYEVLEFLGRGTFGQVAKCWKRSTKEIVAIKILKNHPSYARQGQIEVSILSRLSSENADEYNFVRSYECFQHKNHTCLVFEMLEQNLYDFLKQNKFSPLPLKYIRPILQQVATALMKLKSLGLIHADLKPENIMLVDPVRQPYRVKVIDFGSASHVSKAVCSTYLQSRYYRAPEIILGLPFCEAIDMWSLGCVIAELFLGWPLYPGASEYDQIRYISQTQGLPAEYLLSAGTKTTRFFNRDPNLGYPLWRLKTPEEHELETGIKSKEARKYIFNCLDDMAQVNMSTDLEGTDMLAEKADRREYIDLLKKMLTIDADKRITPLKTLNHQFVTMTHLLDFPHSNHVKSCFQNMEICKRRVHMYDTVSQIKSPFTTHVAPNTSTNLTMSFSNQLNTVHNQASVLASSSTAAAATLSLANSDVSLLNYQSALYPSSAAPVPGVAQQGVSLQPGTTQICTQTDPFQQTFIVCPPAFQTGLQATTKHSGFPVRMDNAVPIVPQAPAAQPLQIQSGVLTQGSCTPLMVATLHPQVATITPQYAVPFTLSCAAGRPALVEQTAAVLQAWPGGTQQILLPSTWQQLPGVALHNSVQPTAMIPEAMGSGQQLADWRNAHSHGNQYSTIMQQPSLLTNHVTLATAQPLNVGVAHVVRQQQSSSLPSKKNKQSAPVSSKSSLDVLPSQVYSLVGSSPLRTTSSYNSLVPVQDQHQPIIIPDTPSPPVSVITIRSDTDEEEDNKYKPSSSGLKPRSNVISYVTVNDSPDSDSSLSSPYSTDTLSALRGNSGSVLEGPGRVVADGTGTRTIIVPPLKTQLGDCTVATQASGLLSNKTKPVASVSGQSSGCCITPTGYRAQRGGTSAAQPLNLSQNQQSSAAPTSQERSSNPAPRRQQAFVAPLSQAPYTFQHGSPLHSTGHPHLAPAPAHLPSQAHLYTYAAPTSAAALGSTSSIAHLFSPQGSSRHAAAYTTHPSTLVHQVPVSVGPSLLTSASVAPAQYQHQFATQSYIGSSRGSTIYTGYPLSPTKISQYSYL", "experiment": "SelectScreen Z'LYTE", "assay_type": "biochemical", "how_it_was_run": "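SelectScreen broad panel; activity (Z'LYTE, Adapta) plus binding formats. ATP: Km app for CSF1R Z'LYTE; 10 for CAMK1 Adapta. Readout = % per kinase.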", "data": [{"smiles": "CN(C(=O)CN1CCOCC1)c1ccc2sc3c(-c4cccc5c(=O)cc(N6CC7CCC(C6)O7)oc45)cccc3c2c1", "note": "[NU5455]", "values": [{"measurement": "inhibition at 1 µM", "result": 2.8, "unit": "%"}]}]}
